From publication PMC2902275 (Cancer prevention research (Philadelphia, Pa.), 2009) come the findings set out here.

SMILES strings stand for the structures.

In the assay the target is HDAC3 (Homo sapiens, UniProt O15379). In words: preliminary enzyme kinetics of HDAC3 inhibition. In kind it is biochemical.
HDAC3, sequence (O15379 whole entry): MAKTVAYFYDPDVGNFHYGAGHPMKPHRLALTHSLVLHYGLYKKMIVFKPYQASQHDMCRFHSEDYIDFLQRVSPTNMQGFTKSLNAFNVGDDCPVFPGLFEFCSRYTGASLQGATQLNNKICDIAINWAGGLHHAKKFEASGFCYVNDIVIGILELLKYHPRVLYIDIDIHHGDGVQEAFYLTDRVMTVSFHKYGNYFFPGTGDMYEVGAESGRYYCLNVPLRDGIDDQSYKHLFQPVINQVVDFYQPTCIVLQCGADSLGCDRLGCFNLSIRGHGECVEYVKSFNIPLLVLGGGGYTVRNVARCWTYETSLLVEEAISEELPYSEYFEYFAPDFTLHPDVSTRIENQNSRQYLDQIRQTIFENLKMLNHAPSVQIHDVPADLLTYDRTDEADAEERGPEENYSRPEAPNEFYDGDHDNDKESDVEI

The Ki is the equilibrium dissociation constant of an inhibitor or competing ligand from its target. Read a high Ki as lower affinity. `C[Se]CCC(=O)C(=O)O` [KMSB, α-keto-γ-methylselenobutyrate]: the Ki is ~30 µM.
